Experimental data from patent publication US8796260B2, “Imidazobenzazepine CGRP receptor antagonists” (Merck Sharp & Dohme Corp., priority 2008, dated 2014).
Values belong to the molecule of their own block, whether it stands above or below them. Ends that are not written are not given here.

Key:
[1] = tested on: headache induced by CGRP infusion; details: control group (Petersen et al. 2005); cited from earlier work
[2] = clinical trials (Olesen et al. 2004); cited from earlier work
[3] = tested on: facial blood flow; details: marmoset, electrical stimulation of the trigeminal ganglion (Doods et al. 2000); cited from earlier work
[4] = target: T1, CGRP receptors in SK-N-MC cell membranes (Homo sapiens, UniProt O60894+Q16602); experiment: Native receptor binding assay (125I-CGRP, SK-N-MC cell membranes); details: 10 pM 125I-CGRP
T1 construct: receptors in SK-N-MC cell membranes; endogenous in cells; host or cells: SK-N-MC cell membranes
Description: NATIVE RECEPTOR BINDING ASSAY: The binding of ^125I-CGRP to receptors in SK-N-MC cell membranes was carried out essentially as described (Edvinsson et al. (2001) Eur. J. Pharmacal. 415, 39-44). Briefly, membranes (25 μg) were incubated in 1 mL of binding buffer [10 mM HEPES, pH 7.4, 5 mM MgCl2 and 0.2% bovine serum albumin (BSA)] containing 10 pM ^125I-CGRP and antagonist. After incubation at room temperature for 3 h, the assay was terminated by filtration through GFB glass fibre filter plates (PerkinElmer) that had been blocked with 0.5% polyethyleneimine for 3 h. The filters were washed three times with ice-cold assay buffer (10 mM HEPES, pH 7.4 and 5 mM MgCl2), then the plates were air dried. Scintillation fluid (50 μL) was added and the radioactivity was counted on a Topeount (Packard Instrument). Data analysis was carried out by using Prism and the Ki was determined by using the Cheng-Prusoff equation (Cheng & Prusoff (1973) Biochem. Pharmacol. 22, 3099-3108).

[5] = target: T2, recombinant human CL receptor/RAMP1 (Homo sapiens, UniProt O60894+Q16602); experiment: Recombinant receptor functional assay (cAMP after human α-CGRP stimulation); type: cell-based; details: HEK 293 cells, 0.3 nM human α-CGRP
T2 construct: expressed in transfected cells
Description: (§1) RECOMBINANT RECEPTOR: Human CL receptor (Genbank accession number L76380) was subcloned into the expression vector pIREShyg2 (BD Biosciences Clontech) as a 5′NheI and 3′ PmeI fragment. Human RAMP I (Genbank accession number AJ001014) was subcloned into the expression vector pIRESpuro2 (BD Biosciences Clontech) as a 5′NheI and 3′NotI fragment. HEK 293 cells (human embryonic kidney cells; ATCC #CRL-1573) were cultured in DMEM with 4.5 g/L glucose, 1 mM sodium pyruvate and 2 mM glutamine supplemented with 10% fetal bovine serum (FBS), 100 units/mL penicillin and 100 μg/mL streptomycin, and maintained at 37° C. and 95% humidity. Cells were subcultured by treatment with 0.25% trypsin with 0.1% EDTA in HBSS. Stable cell line generation was accomplished by co-transfecting 10 μg of DNA with 30 μg Lipofectamine 2000 (Invitrogen) in 75 cm^2 flasks. CL receptor and RAMP I expression constructs were co-transfected in equal amounts. […]
RECOMBINANT RECEPTOR FUNCTIONAL ASSAY: Cells were plated in complete growth medium at 85,000 cells/well in 96-well poly-D-lysine coated plates (Corning) and cultured for ˜19 h before assay. […] Dose response curves were plotted and IC50 values determined from a 4-parameter logistic fit as defined by the equation y=((a−d)/(1+(x/c)^b)+d, where y=response, x=dose, a=max response, d=min response, c=inflection point and b=slope.

[6] = target: T2, recombinant human CL receptor/RAMP1; experiment: Recombinant receptor binding assay (125I-hCGRP); details: recombinant human CL receptor/RAMP1 membranes, 10 pM 125I-hCGRP
Description: as §1, with “amounts. Twenty-four hours after transfection the cells were diluted and selective medium (growth medium+300 μg/mL hygromycin and 1 μg/mL puromycin) was added the following day. A clonal cell line was generated by single cell deposition utilizing a FACS Vantage SE (Becton Dickinson). Growth medium was adjusted to 150 μg/mL hygromycin and 0.5 μg/mL puromycin for cell propagation.” for “amounts.”

[7] = tested on: diameter of the middle meningeal artery; details: rats, electrical stimulation of the dura mater, prior administration (Williamson et al. 1997); cited from earlier work
[8] = tested on: facial blood flow; details: rat, trigeminal ganglion stimulation (Escott et al. 1995); cited from earlier work

T2 sequence (Q16602 23-461): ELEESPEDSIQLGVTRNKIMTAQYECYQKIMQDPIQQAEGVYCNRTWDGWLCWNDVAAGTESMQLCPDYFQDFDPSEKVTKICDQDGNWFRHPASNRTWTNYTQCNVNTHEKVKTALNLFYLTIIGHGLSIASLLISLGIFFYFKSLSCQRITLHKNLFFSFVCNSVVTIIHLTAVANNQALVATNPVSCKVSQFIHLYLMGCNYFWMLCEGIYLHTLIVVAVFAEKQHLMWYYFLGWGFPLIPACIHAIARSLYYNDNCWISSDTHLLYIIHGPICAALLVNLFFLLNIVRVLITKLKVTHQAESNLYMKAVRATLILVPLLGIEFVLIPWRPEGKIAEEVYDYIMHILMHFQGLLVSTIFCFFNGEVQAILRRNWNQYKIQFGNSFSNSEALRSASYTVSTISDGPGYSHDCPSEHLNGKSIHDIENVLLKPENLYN
T2 sequence (O60894 27-148): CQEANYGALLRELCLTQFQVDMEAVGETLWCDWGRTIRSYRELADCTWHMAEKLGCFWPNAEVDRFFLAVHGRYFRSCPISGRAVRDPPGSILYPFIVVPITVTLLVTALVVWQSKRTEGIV
T1 sequence (Q16602 23-461): as the sequence (Q16602 23-461) above
T1 sequence (O60894 27-148): as the sequence (O60894 27-148) above

Molecule: NCCCC[C@H](NC(=O)[C@@H](Cc1cc(Br)c(O)c(Br)c1)NC(=O)N1CCC(N2Cc3ccccc3NC2=O)CC1)C(=O)N1CCN(c2ccncc2)CC1 [BIBN4096BS]
prevention of headache induced by CGRP infusion [1]: able to prevent headache | treating acute attacks of migraine [2]: effective | effect on increase in facial blood flow [3]: could be blocked

Ki [4]: < 1 µM | IC50 [5]: < 1 µM | Ki [6]: < 1 µM
Molecule: CC(C)(O)c1cnc2n1Cc1c(cc(Cl)c3[nH]ncc13)C[C@H]2NC(=O)c1ccc2c(c1)CC1(C2)C(=O)Nc2ncccc21 (stereo partly drawn) [Example 4, N-[(7R)-4-chloro-10-(1-hydroxy-1-methylethyl)-3,6,7,12-tetrahydroimidazo[1′,2′:1,7]azepino[3,4-e]indazol-7-yl]-2′-oxo-1,1′,2′,3-tetrahydrospiro[indene-2,3′-pyrrolo[2,3-b]pyridine]-5-carboxamide]

Molecule: CGRP(8-37): a peptide CGRP antagonist; fragment of CGRP that lacks seven N-terminal amino acid residues (VTHRLAGLLSRSGGVVKNNFVPTNVGSKAF; ends and bridges not checked; UniProt P06881 90-119, looked up, fragment)
effect on increased diameter of the middle meningeal artery [7]: blocked | effect on increased facial blood flow [8]: inhibited
